{
  "source": "patent US9050307B2",
  "about": "“Method for the preparation of a levothyroxine solution” (EMP Pharma GmbH, priority 2011, dated 2015)",
  "origin": "cited, not measured here",
  "data": [
    {"smiles": "N[C@@H](Cc1cc(I)c(Oc2cc(I)c(O)c(I)c2)c(I)c1)C(=O)[O-].[Na+]", "note": "[Levothyroxine sodium, Sodium (2S)-2-amino-3-[4-(4-hydroxy-3,5-diiodophenoxy)-3,5-diiodophenyl]propanoate]", "values": [
      {"measurement": "Solubility in ethanol (96 percent)", "setting": "ethanol (96 percent)", "result": "slightly soluble"},
      {"measurement": "Solubility in water", "setting": "water", "result": "very slightly soluble"}
    ]}
  ]
}
